Results taken from US20070244153A1 (priority 2004, published 2007).

Key:
Type in all cases: in vivo
[1] = system: Plasmopara viticola; test: Controlling effect against grape downy mildew (leaf disk immersion, 250 ppm); details: grape leaf disk immersed 3 hours, 10th day after inoculation, untreated 60 to 70%
Protocol: The developed leaf of grape seedling (breed: Cabernet Sauvignon) grown in 1/2000 a pot was cut and prepared a leaf disk having a diameter of 32 mm. A solution of the compound in acetone was diluted with water to 250 ppm, and the leaf disk was immersed for 3 hours. The disk was taken from the agent solution, subjected to air-drying, and then inoculated by spray with a zoosporangia suspension of Plasmopara viticola. The test disk was incubated at 18° C. for 12 hours in a light-dark light cycle. On the 10th day after inoculation the infected area rate for the leaf disk was examined. Evaluation was carried out by the following criteria. The infected area rate for the untreated groups in the examination was 60 to 70%.

[2] = system: Pseudoperonospora cubensis; test: Controlling effect against cucumber downy mildew (spray on cucumber seedlings, 250 ppm); details: 250 ppm spray, cucumber seedling 1-leaf stage, 7th day after inoculation; untreated 60 to 80%
Protocol: A solution of the compound in acetone was diluted with water to 250 ppm, and the solution was sprayed to the cucumber seedling (breed: Sagamihangbak, two per plastic pot having a diameter of 7.5 cm) at 1-leaf stage in an amount of 10 mL of the compound/pot. After air-drying, the pot was transferred to a moist chamber provided in the greenhouse, and inoculated by spray with a zoosporic suspension of Pseudoperonospora cubensis. On the 7th day after inoculation the infected area rate for the leaves was examined. Evaluation was carried out by the following criteria.
The infected area rate for untreated groups in the examination was 60 to 80%.

[3] = system: Phytophthora infestans; details: 250 ppm spray, tomato seedling 4-leaf stage, 4th day after inoculation; untreated not less than 60%

Row | SMILES | Effect: controlling effect against grape downy mildew (infected area rate) [1] | Effect: controlling effect against cucumber downy mildew (infected area rate) [2] | Effect: controlling effect against tomato late blight (infected area rate) [3]
1 | Cc1ccc(C(=O)NC[C@@H](NC(=O)C(NC(=O)OC(C)(C)C)C2CCOC2)C(C)C)cc1 (mixture of isomers) [Compound No. 69, N-[2-methyl-1-(S)-[[(4-methylbenzoyl)amino]methyl]propyl]2-(RS)-[(1,1-dimethylethyloxycarbonyl)amino]-2-(tetrahydrofuran-3-yl)acetamide] | B (the infected area rate of 5% to less than 50%) | A (the infected area rate of less than 5%) | A (Infected area rate of less than 5%)
2 | Cc1ccc(C(=O)NCC(NC(=O)[C@@H](NC(=O)OC(C)C)C(C)C)C(C)C)cc1 (mixture of isomers) [Compound No. 151, N-[2-methyl-1-(RS)-[[(4-methylbenzoyl)amino]methyl]propyl]3-methyl-2-(S)-[(1-methylethyloxycarbonyl)amino]butyramide] | – | B (the infected area rate of 5% to less than 50%) | A (Infected area rate of less than 5%)
3 | CC(CNC(=O)c1cc2ccccc2o1)NC(=O)[C@@H](NC(=O)OC(C)(C)C)C(C)C (mixture of isomers) [Compound No. 652, N-[2-(RS)-[[(benzofuran-2-carbonyl)amino]-1-methyl]ethyl][3-methyl-2-(S)-[N-(1,1-dimethylethyloxycarbonyl)amino]]butyramide] | B (the infected area rate of 5% to less than 50%) | A (the infected area rate of less than 5%) | A (Infected area rate of less than 5%)
4 | CC(C)OC(=O)N[C@H](C(=O)N[C@H](CNC(=O)C1COc2ccccc2O1)C(C)C)C(C)C (mixture of isomers) [Compound No. 899, N-[2-methyl-1-(S)-[[[(1,4-benzodioxane)-2-(RS)-carbonyl]amino]methyl]propyl][3-methyl-2-(S)-[N-(1-methylethyloxycarbonyl)amino]]butyramide] | B (the infected area rate of 5% to less than 50%) | A (the infected area rate of less than 5%) | A (Infected area rate of less than 5%)
5 | Cc1ccc(C(=O)NC[C@@H](NC(=O)[C@@H](NC(=O)OC(C)(C)C)c2ccccc2)C(C)C)cc1 [Compound No. 60, N-[2-methyl-1-(S)-[[(4-methylbenzoly)amino]methyl]propyl]2-(S)-[(1,1-dimethylethyloxycarbonyl)amino]-2-phenyl acetamide] | – | – | B (Infected area rate of 5% to less than 50%)
6 | Cc1ccccc1C(=O)NC[C@@H](NC(=O)[C@@H](NC(=O)OC(C)C)C(C)C)C(C)C [Compound No. 143, N-[2-methyl-1-(S)-[[(2-methylbenzoyl)amino]methyl]propyl]3-methyl-2-(S)-[(1-methylethyloxycarbonyl)amino]butyramide] | – | B (the infected area rate of 5% to less than 50%) | A (Infected area rate of less than 5%)
7 | CC(C)COC(=O)N[C@H](C(=O)N[C@H](CNC(=O)c1ccc(Cl)cc1)C(C)C)C(C)C [Compound No. 205, N-[1-(S)-[[(4-chlorobenzoyl)amino]methyl]-2-methylpropyl]3-methyl-2-(S)-[(2-methylpropyloxycarbonyl)amino]butyramide] | B (the infected area rate of 5% to less than 50%) | A (the infected area rate of less than 5%) | A (Infected area rate of less than 5%)
8 | Cc1ccc(C(=O)N[C@@H](CNC(=O)[C@@H](NC(=O)OCC(C)C)C(C)C)C(C)C)cc1 [Compound No. 274, N-[3-methyl-2-(R)-[(4-methylbenzoyl)amino]butyl]3-methyl-2-(S)-[(2-methylpropyloxycarbonyl)amino]butyramide] | – | B (the infected area rate of 5% to less than 50%) | A (Infected area rate of less than 5%)
9 | Cc1ccc(C(=O)N[C@@H](CNC(=O)[C@@H](NC(=O)OCc2ccccc2)C(C)C)C(C)C)cc1 [Compound No. 276, N-[3-methyl-2-(R)-[(4-methylbenzoyl)amino]butyl]2-(S)-[(benzyloxycarbonyl)amino]-3-methylbutyramide] | – | – | B (Infected area rate of 5% to less than 50%)
10 | Cc1ccc(C(=O)N[C@H](CNC(=O)[C@@H](NC(=O)OCc2ccccc2)C(C)C)C(C)C)cc1 [Compound No. 281, N-[3-methyl-2-(S)-[(4-methylbenzoyl)amino]butyl]2-(S)-[(benzyloxycarbonyl)amino]-3-methylbutyramide] | – | B (the infected area rate of 5% to less than 50%) | B (Infected area rate of 5% to less than 50%)
11 | CC[C@H](C)[C@@H](CNC(=O)c1ccc(C)cc1)NC(=O)[C@@H](NC(=O)OC)C(C)C [Compound No. 306, N-[2-(S)-methyl-1-(S)-[[(4-methylbenzoyl)amino]methyl]butyl]3-methyl-2-(S)-[(methyloxycarbonyl)amino]butyramide] | A (the infected area rate of less than 5%) | A (the infected area rate of less than 5%) | A (Infected area rate of less than 5%)
12 | CC(C)OC(=O)N[C@H](C(=O)NC[C@@H](NC(=O)c1cc2ccccc2o1)C(C)C)C(C)C [Compound No. 675, N-[[2-(S)-[(benzofuran-2-carbonyl)amino]-3-methyl]butyl][2-(S)-[(1-methylethyloxycarbonyl)amino]-3-methyl]butyramide] | – | B (the infected area rate of 5% to less than 50%) | A (Infected area rate of less than 5%)
13 | CC(C)[C@H](NC(=O)OCc1ccccc1)C(=O)NC[C@@H](NC(=O)c1cc2ccccc2o1)C(C)C [Compound No. 678, N-[3-methyl-2-(S)-[(benzofuran-2-carbonyl)amino]butyl]2-(S)-[(benzyloxycarbonyl)amino]-3-methylbutyramide] | B (the infected area rate of 5% to less than 50%) | A (the infected area rate of less than 5%) | B (Infected area rate of 5% to less than 50%)
14 | CCOC(=O)N[C@H](C(=O)N[C@H](CNC(=O)c1cc2ccccc2o1)C(C)(C)C)C(C)C [Compound No. 714, N-[1-(S)-[[(benzofuran-2-carbonyl)amino]methyl)-2,2-dimethylpropyl][3-methyl-2-(S)-[N-(ethyloxycarbonyl)amino]]butyramide] | A (the infected area rate of less than 5%) | A (the infected area rate of less than 5%) | A (Infected area rate of less than 5%)
15 | CCOC(=O)N[C@H](C(=O)N[C@H](CNC(=O)c1cc2ccccc2o1)C(C)C)C(C)C [Compound No. 772, N-[2-methyl-1-(S)-[[(benzofuran-2-carbonyl)amino]methyl]propyl][3-methyl-2-(S)-[N-(ethyloxycarbonyl)amino]]butyramide] | A (the infected area rate of less than 5%) | A (the infected area rate of less than 5%) | A (Infected area rate of less than 5%)
16 | CC(C)[C@H](NC(=O)OCC1CCCO1)C(=O)N[C@H](CNC(=O)c1cc2ccccc2o1)C(C)C (stereo partly drawn) [Compound No. 786, N-[1-(S)-[[(benzofuran-2-carbonyl)amino]methyl]-2-methylpropyl]3-methyl-2-(S)-[[(tetrahydrofuran-2-methyl)oxycarbonyl]amino]butyramide] | – | A (the infected area rate of less than 5%) | A (Infected area rate of less than 5%)
